Tested on: lac repressor/operator system controlling plastome-encoded smGFP
Test: Chemical induction of plastid GFP transgene expression by spraying a transplastomic tobacco plant with IPTG (Western blot)
Format: in vivo, Nicotiana tabacum
Description: FIG. 2: Immunological detection of GFP expression after induction with IPTG. • A) Plastid transformant 557-1 containing the smGFP gene under the control of the 16S-lac3 promoter and the lacl gene (transformation vector plCF1050-1), was analyzed for its GFP content by Western blotting. For the uninduced sample (−), a young leaf of a ca. 7 cm high plant was removed before spraying the plant with a 1 mM IPTG solution. For the induced sample (+), the next youngest leaf was cut four days after spraying. The amount of total soluble protein loaded on the gel is given on the top of the lanes. • B) Lower amounts of protein of the induced sample shown in A were loaded on the gel in order to allow quantification in comparison with the uninduced sample. In addition, protein from further leaves that were cut seven days after spraying was loaded. Leaf a was the next youngest leaf, leaf b an older leaf. Compared with a GFP standard, the amount of GFP in the first lane is in the range of 15 to 20 ng.
Tobacco seeds (Nicotiana tabacum cv. petite havana) were surface sterilized (1 min in 70% ethanol, 10 min in 5% Dimanin C, Bayer, Leverkusenr, Germany), washed 3 times for 10 min in sterile H2O and put on SCN-medium (Dovzhenko et al., 1998). Plants were grown at 25° C. in a 16 h light/8 h dark cycle (0.5-1 W/m^2 Osram L85W/25 Universal-White fluorescent lamps). Protoplast isolation was made according to Dovzhenko et al. (1998). Transformation using polyethyleneglycol (PEG) was performed as described in Koop et al. (1996), and alginate embedding according to Dovzhenko et al. (1998). After one week of culture in liquid medium, cells were transferred to agar-solidified RMOP-medium (Svab et al., 1990) containing 25 μg/ml kanamycin to select for transformants. Green regenerates were retrieved after […] and transferred to individual plates. In order to achieve homoplastomy, the individual lines were subjected to repeated cycles of shoot generation by cutting small leaf pieces which form new regenerates on RMOP-medium with 15 μg/ml kanamycin. Rooting of selected regenerates was done on SCN-medium containing 15 μg/ml spectinomycin. […]
A transplastomic plant generated with plCF10501 was grown on SCN-medium to a height of ca. 7 cm. […] After four and seven days, respectively, the next youngest leaf was cut off and also analyzed. […] Protein quantification was made according to the Bradford method with RotiQuant solution. Proteins were separated on a 15% polyacrylamide gel and transferred to nitrocellulose membrane, and GFP was detected immunologically using the ECL method (primary antibody directed against a recombinant protein corresponding to GFP from A. victoria; Santa Cruz Biotechnology).

CC(C)S[C@@H]1O[C@H](CO)[C@H](O)[C@H](O)[C@H]1O [IPTG, isopropyl-D-thiogalactopyranoside]
amount of GFP in the first lane compared with a GFP standard (FIG. 2B, first lane, Western blot of plastid transformant 557-1 sprayed with 1 mM IPTG): 15 to 20 ng | green fluorescence of leaves (after spraying with 1 mM IPTG, leaves irradiated with ultraviolet/blue light): increase in green fluorescence | amount of GFP in the leaves (plant sprayed with ca. 1 ml of 1 mM IPTG, leaf cut seven days after spraying, Western blot, FIG. 2): a further increase could be observed | increase of the amount of GFP in the leaves (plant sprayed with ca. 1 ml of 1 mM IPTG, next youngest leaf cut four days after spraying vs leaf cut before spraying, Western blot, FIG. 2): about 10 fold

From patent US20070016983A1, “Controlling gene expressions in plastids” (Icon Genetics AG, priority 2003, published 2007)
